Reference: patent US20250160275A1, “COMPOUNDS FOR MODIFYING MEIOTIC RECOMBINATION AND METHODS RELATING THERETO” (The University of North Carolina at Chapel Hill, priority 2022, published 2025)

Tests used:
Format in all cases: in vivo
[1] = test system: flowering Arabidopsis thaliana plants; assay: visual fluorescent pollen transgene assay, crossover frequency in interval I5d (chromosome 5)
Experimental: An aqueous solution of 3-aminobutanoic acid was applied to flowering Arabidopsis thaliana plants to enhance the frequency of meiotic recombination (crossovers). Silwet, a spraying adjuvant, was added to the 3-aminobutanoic acid solution at a volume/volume concentration of 0.01%. The solution was applied to the plants by foliar spraying until the plants were drenched. Several concentrations of 3-aminobutanoic acid were used including 0.1, 1, 7.5, 10, 12.5 and 15 mM. As a control, other plants (i.e., control plants) were treated with an aqueous 0.01% solution of Silwet by foliar spraying the solution on the plants until the plants were drenched.
(§1) Crossover frequencies were measured in pollen from treated and control plants using a visual fluorescent pollen transgene assay as described in Francis et al., Proc Natl Acad Sci USA. 2007; 104 (10): 3913-3918. In this assay pollen tetrads are scored as Parental Ditype (PD), Nonparental Ditype (NPD) or Tetratype (TT) and the frequency of those tetrad classes are used to calculate a genetic map distances in centiMorgans (cM) between reporter genes expressing fluorescent proteins. The genetic map distances between a pair of markers on chromosome 5 were compared between control plants and treated plants. The genetic interval between the two markers was designated as I5d. […] In Table 2, each experimental treatment is paired with data from control plants that were treated and scored together and designated with an experiment number in the first column.
An aqueous solution phenethyl isothiocyanate (IUPAC name: 2-isothiocyanatoethylbenzene) was applied to flowering Arabidopsis thaliana plants to enhance the frequency of meiotic recombination (crossovers). Phenethyl isothiocyanate in an aqueous solution containing 10% DMSO and 0.01% Silwet was applied by foliar spray until the plants were drenched. The phenethyl isothiocyanate was first dissolved in 100% DMSO and then diluted to its final concentration with 0.0.1% Silwet in water. Several concentrations of phenethyl isothiocyanate were used including 7.5, 10, and 12.5 mM. Control plants were treated with an aqueous solution of 10% DMSO and 0.01% Silwet by foliar spraying the solution on the control plants until the control plants were drenched.
as §1, with “4,” for “2,”
An aqueous solution BIX-01294 (IUPAC name: N-(1-benzylpiperidin-4-yl)-6,7-dimethoxy-2-(4-methyl-1,4-diazepan-1-yl) quinazolin-4-amine) was applied to flowering Arabidopsis thaliana plants to enhance the frequency of meiotic recombination (crossovers). BIX-01294 in an aqueous solution containing 10% DMSO and 0.01% Silwet was applied by foliar spray until the plants were drenched. The BIX-01294 was first dissolved in 100% DMSO and then diluted to its final concentration with 0.0.1% Silwet in water. Several concentrations of […] were used including 0.5, 1, 2.5 and 5 mM. Control plants were treated with an aqueous solution of 10% DMSO and 0.01% Silwet by foliar spraying the solution on the control plants until the control plants were drenched. […]

[2] = test system: flowering Arabidopsis thaliana plants; assay: visual fluorescent pollen transgene assay, crossover frequency in interval I2b (chromosome 2); conditions: for NPD (Nonparental Ditype pollen tetrads) / PD (Parental Ditype pollen tetrads) / TT (Tetratype pollen tetrads) / genetic map distance: 0.01% Silwet in water, Exp.(1); for genetic map distance: Water control 5.11 cM
[3] = test system: flowering Arabidopsis thaliana plants; assay: visual fluorescent pollen transgene assay, crossover frequency in interval I2a (chromosome 2)
[4] = 0.1 mM foliar spray, 0.01% Silwet in water, Exp.(1)
[5] = 1 mM foliar spray, 0.01% Silwet in water, Exp.(2)
[6] = 10 mM foliar spray, 0.01% Silwet in water, Exp.(1)
[7] = 12.5 mM foliar spray, 0.01% Silwet in water, Exp.(3)
[8] = 15 mM foliar spray, 0.01% Silwet in water, Exp.(3)
[9] = 2.5 mM foliar spray, Example 4, Exp.(1)
[10] = 7.5 mM foliar spray, Example 4, Exp.(1)
[11] = 10 mM foliar spray, Example 4, Exp.(1)
[12] = 0.5 mM foliar spray, 10% DMSO and 0.01% Silwet, Exp.(1)
[13] = 1 mM foliar spray, 10% DMSO and 0.01% Silwet, Exp.(2)
[14] = 2.5 mM foliar spray, 10% DMSO and 0.01% Silwet, Exp.(3)
[15] = 5 mM foliar spray, 10% DMSO and 0.01% Silwet, Exp.(3)
[16] = 0.1 mM foliar spray, 10% DMSO and 0.01% Silwet, Exp.(1)
[17] = 1 mM foliar spray, 10% DMSO and 0.01% Silwet, Exp.(1)
[18] = 2.5 mM foliar spray, 10% DMSO and 0.01% Silwet, Exp.(2)
[19] = 5 mM foliar spray, 10% DMSO and 0.01% Silwet, Exp.(2)

Compound: CC(N)CC(=O)O (stereo not shown) [3-aminobutanoic acid]
- NPD (Nonparental Ditype pollen tetrads) [1, 4]: 0
- PD (Parental Ditype pollen tetrads) [1, 4]: 926
- TT (Tetratype pollen tetrads) [1, 4]: 178
- genetic map distance ([1]; 0.1 mM foliar spray, 0.01% Silwet in water, Exp.(1), Water control 5.89 cM, p-value 0.002): 8.06 cM
- NPD (Nonparental Ditype pollen tetrads) [1, 5]: 0
- PD (Parental Ditype pollen tetrads) [1, 5]: 983
- TT (Tetratype pollen tetrads) [1, 5]: 169
- genetic map distance ([1]; 1 mM foliar spray, 0.01% Silwet in water, Exp.(2), Water control 5.37 cM, p-value 0.003): 7.34 cM
- NPD (Nonparental Ditype pollen tetrads) [1, 6]: 0
- PD (Parental Ditype pollen tetrads) [1, 6]: 1092
- TT (Tetratype pollen tetrads) [1, 6]: 221
- genetic map distance ([1]; 10 mM foliar spray, 0.01% Silwet in water, Exp.(1), Water control 5.89 cM, p-value 0.000): 8.42 cM
- NPD (Nonparental Ditype pollen tetrads) [1, 7]: 4
- PD (Parental Ditype pollen tetrads) [1, 7]: 908
- TT (Tetratype pollen tetrads) [1, 7]: 166
- genetic map distance ([1]; 12.5 mM foliar spray, 0.01% Silwet in water, Exp.(3), Water control 5.50 cM, p-value 0.000): 8.81 cM
- NPD (Nonparental Ditype pollen tetrads) [1, 8]: 2
- PD (Parental Ditype pollen tetrads) [1, 8]: 849
- TT (Tetratype pollen tetrads) [1, 8]: 160
- genetic map distance ([1]; 15 mM foliar spray, 0.01% Silwet in water, Exp.(3), Water control 5.50 cM, p-value 0.000): 8.51 cM
- meiotic recombination in treated plants compared to controls ([1]; all concentrations (Table 2: 0.1, 1, 10, 12.5, 15 mM)): increase meiotic recombination
- NPD (Nonparental Ditype pollen tetrads) ([2]; 7.5 mM foliar spray): 3
- PD (Parental Ditype pollen tetrads) ([2]; 7.5 mM foliar spray): 867
- TT (Tetratype pollen tetrads) ([2]; 7.5 mM foliar spray): 128
- genetic map distance ([2]; 7.5 mM foliar spray, p-value 0.006): 7.31 cM
- NPD (Nonparental Ditype pollen tetrads) ([2]; 10 mM foliar spray): 1
- PD (Parental Ditype pollen tetrads) ([2]; 10 mM foliar spray): 866
- TT (Tetratype pollen tetrads) ([2]; 10 mM foliar spray): 140
- genetic map distance ([2]; 10 mM foliar spray, p-value 0.003): 7.25 cM
- NPD (Nonparental Ditype pollen tetrads) ([2]; 12.5 mM foliar spray): 0
- PD (Parental Ditype pollen tetrads) ([2]; 12.5 mM foliar spray): 865
- TT (Tetratype pollen tetrads) ([2]; 12.5 mM foliar spray): 155
- genetic map distance ([2]; 12.5 mM foliar spray, p-value 0.000): 7.60 cM
- meiotic recombination in treated plants compared to control plants ([2]; all three concentrations (7.5, 10, 12.5 mM)): increased meiotic recombination
- NPD (Nonparental Ditype pollen tetrads) [3, 9]: 0
- PD (Parental Ditype pollen tetrads) [3, 9]: 924
- TT (Tetratype pollen tetrads) [3, 9]: 67
- genetic map distance ([3]; 2.5 mM foliar spray, Example 4, Exp.(1), DMSO control 2.32 cM, p-value 0.021): 3.38 cM
- NPD (Nonparental Ditype pollen tetrads) [3, 10]: 0
- PD (Parental Ditype pollen tetrads) [3, 10]: 914
- TT (Tetratype pollen tetrads) [3, 10]: 66
- genetic map distance ([3]; 7.5 mM foliar spray, Example 4, Exp.(1), DMSO control 2.32 cM, p-value 0.023): 3.37 cM
- NPD (Nonparental Ditype pollen tetrads) [3, 11]: 0
- PD (Parental Ditype pollen tetrads) [3, 11]: 941
- TT (Tetratype pollen tetrads) [3, 11]: 60
- genetic map distance ([3]; 10 mM foliar spray, Example 4, Exp.(1), DMSO control 2.32 cM, p-value 0.090): 3.00 cM
- meiotic recombination in treated plants compared to control plants ([3]; Example 4, 2.5 and 7.5 mM, two of three concentrations (not 10 mM)): increased meiotic recombination

Compound: COc1cc2nc(N3CCCN(C)CC3)nc(NC3CCN(Cc4ccccc4)CC3)c2cc1OC [BIX-01294, N-(1-benzylpiperidin-4-yl)-6,7-dimethoxy-2-(4-methyl-1,4-diazepan-1-yl) quinazolin-4-amine]
- NPD (Nonparental Ditype pollen tetrads) [1, 12]: 1
- PD (Parental Ditype pollen tetrads) [1, 12]: 936
- TT (Tetratype pollen tetrads) [1, 12]: 185
- genetic map distance ([1]; 0.5 mM foliar spray, 10% DMSO and 0.01% Silwet, Exp.(1), DMSO control 6.04 cM, p-value 0.001): 8.51 cM
- NPD (Nonparental Ditype pollen tetrads) [1, 13]: 0
- PD (Parental Ditype pollen tetrads) [1, 13]: 829
- TT (Tetratype pollen tetrads) [1, 13]: 131
- genetic map distance ([1]; 1 mM foliar spray, 10% DMSO and 0.01% Silwet, Exp.(2), DMSO control 6.73 cM, p-value 0.454): 6.82 cM
- NPD (Nonparental Ditype pollen tetrads) [1, 14]: 5
- PD (Parental Ditype pollen tetrads) [1, 14]: 888
- TT (Tetratype pollen tetrads) [1, 14]: 169
- genetic map distance ([1]; 2.5 mM foliar spray, 10% DMSO and 0.01% Silwet, Exp.(3), DMSO control 5.31 cM, p-value 0.000): 9.37 cM
- NPD (Nonparental Ditype pollen tetrads) [1, 15]: 4
- PD (Parental Ditype pollen tetrads) [1, 15]: 938
- TT (Tetratype pollen tetrads) [1, 15]: 156
- genetic map distance ([1]; 5 mM foliar spray, 10% DMSO and 0.01% Silwet, Exp.(3), DMSO control 5.31 cM, p-value 0.001): 8.20 cM
- meiotic recombination in treated plants compared to controls ([1]; 0.5, 2.5 and 5 mM, three of four concentrations (not 1 mM)): increase meiotic recombination
- NPD (Nonparental Ditype pollen tetrads) [3, 16]: 0
- PD (Parental Ditype pollen tetrads) [3, 16]: 908
- TT (Tetratype pollen tetrads) [3, 16]: 59
- genetic map distance ([3]; 0.1 mM foliar spray, 10% DMSO and 0.01% Silwet, Exp.(1), DMSO control 2.19 cM, p-value 0.046): 3.05 cM
- NPD (Nonparental Ditype pollen tetrads) [3, 12]: 0
- PD (Parental Ditype pollen tetrads) [3, 12]: 922
- TT (Tetratype pollen tetrads) [3, 12]: 84
- genetic map distance ([3]; 0.5 mM foliar spray, 10% DMSO and 0.01% Silwet, Exp.(1), DMSO control 2.19 cM, p-value 0.000): 4.17 cM
- NPD (Nonparental Ditype pollen tetrads) [3, 17]: 0
- PD (Parental Ditype pollen tetrads) [3, 17]: 988
- TT (Tetratype pollen tetrads) [3, 17]: 99
- genetic map distance ([3]; 1 mM foliar spray, 10% DMSO and 0.01% Silwet, Exp.(1), DMSO control 2.19 cM, p-value 0.000): 4.55 cM
- NPD (Nonparental Ditype pollen tetrads) [3, 18]: 0
- PD (Parental Ditype pollen tetrads) [3, 18]: 777
- TT (Tetratype pollen tetrads) [3, 18]: 55
- genetic map distance ([3]; 2.5 mM foliar spray, 10% DMSO and 0.01% Silwet, Exp.(2), DMSO control 2.75 cM, p-value 0.163): 3.31 cM
- NPD (Nonparental Ditype pollen tetrads) [3, 19]: 0
- PD (Parental Ditype pollen tetrads) [3, 19]: 836
- TT (Tetratype pollen tetrads) [3, 19]: 43
- genetic map distance ([3]; 5 mM foliar spray, 10% DMSO and 0.01% Silwet, Exp.(2), DMSO control 2.75 cM, p-value 0.725): 2.45 cM
- meiotic recombination in treated plants compared to control plants ([3]; 0.1, 0.5 and 1 mM, three of five concentrations (not 2.5, 5 mM)): increased meiotic recombination
